Experimental data published in PMC5589637, “New perspectives of cobalt tris(bipyridine) system: anti-cancer effect and its collateral sensitivity towards multidrug-resistant (MDR) cancers” (Oncotarget, 2017).

How the values were obtained:
[1] = tested on: HeLa (cervical cancer) cells; assay: MTT cytotoxicity assay, HeLa; type: cell-based; conditions: 72 h
Experimental: (§1) All tested compounds were dissolved in DMSO at a final concentration of 50 mmol/L and stored at −20°C before use. Cytotoxicity was assessed by using the 3-(4,5-dimethylthiazol-2-yl)-2, 5-diphenyltetrazolium bromide (MTT) (5.0 mg/ml) assay as previously described. Briefly, 4×10^3 cells per well were seeded in 96-well plates before drug treatments. After overnight culture, the cells were then exposed to different concentrations of selected compounds ([…]) for 72 hours. Cells without drug treatment were used as control. Subsequently, MTT (10 μL) solution was added to each well and incubated at 37°C for 4 hours followed by the addition of 100 μL solubilization buffer (10%SDS in 0.01 mol/L HCl) and overnight incubation. A570 nm was then determined in each well on the next day. The percentage of cell viability was calculated using the following formula: Cell viability (%) = Atreated/Acontrol × 100. Data were obtained from three independent experiments.

[2] = tested on: H1299 (lung cancer) cells; assay: MTT cytotoxicity assay, H1299; type: cell-based, human; conditions: 72 h
Experimental: as §1

[3] = tested on: A549 (EGFR wild-type lung cancer) cells; assay: MTT cytotoxicity assay, A549; type: cell-based; conditions: 72 h
Experimental: as §1

[4] = tested on: LLC-1 (mouse lung cancer) cells; assay: MTT cytotoxicity assay, LLC-1; type: cell-based; conditions: LLC-1, MTT, 72 h
Experimental: as §1

[5] = tested on: MCF-7 taxol-sensitive cancer cells; assay: MTT cytotoxicity, taxol-sensitive MCF-7; type: cell-based; conditions: 72 h
Excerpt: (§2) All cells were obtained from the American Type Culture Collection (Rockville, MD, USA) unless otherwise specified. Immortalized wild-type and Atg7-deficient mouse embryonic fibroblasts (MEFs) were kindly provided by Professor Masaaki Komatsu (Juntendo University, School of Medicine, Japan). Taxol-resistant types of MCF-7, HCT-8, A549 cancers cells and cisplatin-resistant SGC7901 cancer cells were purchased from KeyGEN BioTECH, China. Cisplatin-sensitive or –resistant A2780, OV2008 and C13 cancer cells were kindly provided by Prof. Benjamin Tsang (Department of Obstetrics and Gynecology and Department of Cellular and Molecular Medicine, University of Ottawa, Canada). HCT116 p53^+/+ and p53^−/− isogenic human colon cancer cells were kindly provided by Professor Bert Vogelstein (Ludwig Center at Johns Hopkins, Howard Hughes Medical Institute, USA). All media were supplemented with 10% fetal bovine serum and antibiotics penicillin (50 U/ml) and streptomycin (50 μg/ml; Invitrogen, Paisley, Scotland, UK). All cell cultures were incubated at 37°C in a 5% humidified CO2 incubator.
as §1

[6] = tested on: HCT-8 taxol-resistant cancer cells; assay: MTT cytotoxicity, taxol-resistant HCT-8; type: cell-based
Excerpt: as §2, §1

[7] = tested on: A549 taxol-sensitive cancer cells; assay: MTT cytotoxicity, taxol-sensitive A549; type: cell-based; conditions: 72 h
Excerpt: as §2, §1

[8] = tested on: A549 taxol-resistant cancer cells; assay: MTT cytotoxicity, taxol-resistant A549; type: cell-based
Excerpt: as §2, §1

[9] = tested on: A2780 cisplatin-sensitive cancer cells; assay: MTT cytotoxicity, cisplatin-sensitive A2780; type: cell-based; conditions: 72 h
Excerpt: as §2, §1

[10] = tested on: A2780 cisplatin-resistant cancer cells; assay: MTT cytotoxicity, cisplatin-resistant A2780; type: cell-based
Excerpt: as §2, §1

[11] = tested on: C13 (cisplatin-resistant) cells; assay: MTT cytotoxicity, C13 (cisplatin-resistant); type: cell-based
Excerpt: as §2, §1

[12] = tested on: HCT116 p53^+/+ colon cancer cells; assay: MTT cytotoxicity, HCT116 p53+/+; type: cell-based, human; conditions: 72 h
Excerpt: as §2, §1

[13] = tested on: HeLa cancer cells; assay: Western blot of autophagy markers; type: cell-based
Experimental: (§3) Western blot analysis was carried out following standard methods. Cells were lysed with RIPA lysis buffer with protease and phosphatase inhibitor cocktails. Protein concentrations were determined using the Bio-Rad protein assay (Bio-Rad Laboratories, Inc., Hercules, CA, USA). After electrophoresis, the proteins from SDS/PAGE were electro-transferred to a Hybond enhanced chemiluminescence nitrocellulose membrane (Amersham Biosciences, NJ, USA), which was then blocked with 5% dried milk for 1 hour. After washing, the blot was incubated with the indicated primary antibodies overnight at 4°C. Detection was performed using appropriated HRP-conjugated secondary antibodies for 1 hour at RT followed by chemiluminescence (Invitrogen).

[14] = tested on: HeLa cancer cells; assay: Flow cytometry cell-cycle analysis; type: cell-based; conditions: 24 h, propidium iodide flow cytometry
Excerpt: Cobalt complex 2-treated cells were harvested and analysed by flow cytometry using propidium iodide staining (BD Biosciences, San Jose, CA, USA) according to the manufacturer instructions. Cell population in different phase of cell cycle were quantitatively counted by a flow cytometer (BD FACSAria III, San Jose, CA, USA).

[15] = tested on: HeLa cancer cells; assay: Western blot of S phase cell cycle markers; type: cell-based; conditions: 24 h, 10 and 15 μM
Experimental: as §3

[16] = biological target: P-gp ATPase (Homo sapiens, UniProt P08183); conditions: 0–2 μM, verapamil (200 μM) stimulated, ATP, 1 h at 37°C
P-gp ATPase, sequence (P08183 whole entry): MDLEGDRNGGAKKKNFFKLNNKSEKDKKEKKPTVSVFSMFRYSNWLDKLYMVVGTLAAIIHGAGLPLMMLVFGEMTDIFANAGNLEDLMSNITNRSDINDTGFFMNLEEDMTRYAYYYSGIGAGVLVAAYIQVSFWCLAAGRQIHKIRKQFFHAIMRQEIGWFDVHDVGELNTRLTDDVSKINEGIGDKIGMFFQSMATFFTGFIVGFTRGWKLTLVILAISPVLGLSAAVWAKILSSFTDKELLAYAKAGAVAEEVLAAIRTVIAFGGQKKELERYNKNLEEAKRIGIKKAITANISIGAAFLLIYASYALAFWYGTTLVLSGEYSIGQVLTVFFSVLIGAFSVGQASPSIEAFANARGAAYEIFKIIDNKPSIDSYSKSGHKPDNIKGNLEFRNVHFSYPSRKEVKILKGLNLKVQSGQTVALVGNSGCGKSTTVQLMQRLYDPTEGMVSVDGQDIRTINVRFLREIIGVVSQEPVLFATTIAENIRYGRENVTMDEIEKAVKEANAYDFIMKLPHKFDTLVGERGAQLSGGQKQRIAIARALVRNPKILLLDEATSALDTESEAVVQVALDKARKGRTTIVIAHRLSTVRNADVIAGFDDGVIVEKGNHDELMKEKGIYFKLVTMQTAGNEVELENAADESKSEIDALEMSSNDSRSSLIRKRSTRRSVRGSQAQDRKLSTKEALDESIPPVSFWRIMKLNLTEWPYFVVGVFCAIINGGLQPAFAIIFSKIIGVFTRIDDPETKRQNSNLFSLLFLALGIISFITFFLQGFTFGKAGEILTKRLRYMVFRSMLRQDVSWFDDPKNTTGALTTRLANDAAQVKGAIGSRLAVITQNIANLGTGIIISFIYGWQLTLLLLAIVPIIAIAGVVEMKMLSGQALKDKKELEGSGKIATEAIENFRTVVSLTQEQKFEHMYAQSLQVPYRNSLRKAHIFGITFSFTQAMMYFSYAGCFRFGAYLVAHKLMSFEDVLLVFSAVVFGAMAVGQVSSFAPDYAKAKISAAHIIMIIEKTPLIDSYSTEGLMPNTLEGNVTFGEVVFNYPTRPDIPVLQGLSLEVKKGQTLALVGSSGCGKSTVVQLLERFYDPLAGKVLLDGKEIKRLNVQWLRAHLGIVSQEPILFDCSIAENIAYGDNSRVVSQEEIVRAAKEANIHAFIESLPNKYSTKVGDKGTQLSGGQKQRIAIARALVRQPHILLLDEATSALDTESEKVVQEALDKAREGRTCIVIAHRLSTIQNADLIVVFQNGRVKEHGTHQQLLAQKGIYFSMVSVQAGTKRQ
Experimental: The luminescence of the sample reflects the ATP level in the sample, which is negatively correlated with the activity of P-gp ATPase and was recorded using the SpectraMax Paradigm Multi-Mode Microplate Reader (Molecular Devices). DMSO-treated activities are expressed as the percentage of basal activity.

Cc1ccnc(-c2cc(C)ccn2)c1.Cc1ccnc(-c2cc(C)ccn2)c1.Cc1ccnc(-c2cc(C)ccn2)c1.F[P-](F)(F)(F)(F)F.F[P-](F)(F)(F)(F)F.F[P-](F)(F)(F)(F)F.[Co+3] [complex 2, [Co^III(4,4’-Me2-bpy)3](PF6)3]
IC50 [1]: 11.9 µM
IC50 [2]: 2.84 µM
IC50 [3]: 7.86 µM
IC50 [4]: 3.39 µM
IC50 [5]: 4 µM
IC50 ([6]; HCT-8 taxol-resistant, MTT, 72 h): 1.22 µM
Resistant Factor, HCT-8 ([6]; IC50 of taxol-resistant cells over IC50 of taxol-sensitive cells, HCT-8): 0.36
IC50 [7]: 11.5 µM
IC50 ([8]; A549 taxol-resistant, MTT, 72 h): 2.85 µM
Resistant Factor, A549 ([8]; IC50 of taxol-resistant cells over IC50 of taxol-sensitive cells, A549): 0.25
IC50 [9]: 12.3 µM
IC50 ([10]; A2780 cisplatin-resistant, MTT, 72 h): 10.7 µM
Resistant Factor, A2780 ([10]; cisplatin-resistant over cisplatin-sensitive IC50, A2780): 0.87
IC50 ([11]; C13 (cisplatin-resistant), MTT, 72 h, read-out: IC50 value, cisplatin-resistant cancer, C13): 7.59 µM
Resistant Factor, OV2008/C13 pair ([11]; C13 (resistant) IC50 over OV2008 (sensitive) IC50): 1.0
IC50 [12]: 15.4 µM
protein expression of p62 and P-p70S6K ([13]; 10μM and 15μM): prominently reduced
LC3-II protein conversion ([13]; 24 h): dose-dependently increased the LC3-II protein conversion
expression of beclin-1 protein ([13]; 24 h, vs untreated control): upregulated
effect on cell cycle progression, high concentration ([14]; high concentration): arrest HeLa cancer cell in S-phase
effect on cell cycle progression, low concentration ([14]; low concentration): negligible effect on cell cycle progression
protein level of cyclin A and E2F [15]: significant accumulation
protein level of cyclin D and E, cdk4, and cdk2 [15]: decreased
P-gp ATPase activity (change in luminescence) [16]: dose-dependently inhibited the ATPase activity of P-gp
